“And” between values parts separate entries of the source, which are not always exact repeats. Identical values can stand only once.
Legend:
[1] = In vivo metabolism test of 177Lu-labeled complex in SD rats (plasma radioactive counts); details: for plasma radioactive counts: individual rat, 100 μL plasma; for plasma radioactive counts, MEAN: mean of rats
Procedure: Eighteen SD rats (Hangzhou Ziyuan Experimental Animal Technology Co., Ltd.), male, weighing 180-200 g, were randomly divided into 6 groups, 3 rats in each group. […] of the labeled precursor compound was injected into the tail vein of each mouse. 250 μL of orbital blood was collected into anticoagulant tubes at 5 min, 0.5 h, 1 h, 2 h, 4 h, 8 h and 24 h after administration. Blood was centrifuged at 3000 rpm for 10 min, and 100 μL of plasma was taken into scintillation vials. 2 mL of scintillation fluid was added to each scintillation vial and shaken well. A liquid scintillation counter was used to detect radioactive counts in each vial.

[2] = system: PSMA-positive cells LNCap; test: Uptake of labeled compounds by PSMA-positive cells LNCap; type: cell-based; details: 37° C., 0.5 h
Procedure: LNCap cells (Shangcheng Beina Chuanglian Biotechnology Co., Ltd., Industrial Park, Chengguan Town, Shangcheng County, Xinyang City, Henan Province) were revived and passaged for expansion. After the cells were expanded to a sufficient amount, cells were seeded in a 24-well plate at a density of 1×10^4 cells/well. Uptake tests were performed when cells grew to 80%-90% confluence.
The above labeled compounds ^177Lu-E1, ^177Lu-E2, ^177Lu-E3, ^177Lu-E5, ^177Lu-E9, ^177Lu-E14 and ^177Lu-PSMA-617 were diluted with serum-free medium into 10000, 1000, 100, 10, 1, 0.1 and 0 nM. 1 mL of the diluted solution was added to a 24-well plate, and incubated at 37° C. for 0.5 h. The supernatant was discarded and the cells were washed 3 times with PBS. 250 μL of 1M NaOH solution was added to each well. The cells were pipetted until they were completely dissolved, and transferred to a scintillation vial. 250 μL of NaOH solution was added to each well again to wash the bottom of the well and transferred to a scintillation vial. 2 mL of scintillation fluid was added to each scintillation vial and shaken well. A liquid scintillation counter was used to detect radioactive counts in each vial.

[3] = 5 min after tail vein injection
[4] = 0.5 h after tail vein injection

Structure (SMILES)	plasma radioactive counts [1, 3]	plasma radioactive counts [1, 4]	plasma radioactive counts ([1]; 1 h after tail vein injection)	plasma radioactive counts ([1]; 2 h after tail vein injection)	plasma radioactive counts ([1]; 4 h after tail vein injection)	plasma radioactive counts ([1]; 8 h after tail vein injection)	plasma radioactive counts ([1]; 24 h after tail vein injection)	plasma radioactive counts, MEAN [1, 3]	plasma radioactive counts, MEAN [1, 4]	plasma radioactive counts, MEAN ([1]; 1 h after tail vein injection)	plasma radioactive counts, MEAN ([1]; 2 h after tail vein injection)	plasma radioactive counts, MEAN ([1]; 4 h after tail vein injection)	plasma radioactive counts, MEAN ([1]; 8 h after tail vein injection)	plasma radioactive counts, MEAN ([1]; 24 h after tail vein injection)	uptake by LNCap cells ([2]; 0.1 nM)	uptake by LNCap cells ([2]; 1 nM)	uptake by LNCap cells ([2]; 10 nM)	uptake by LNCap cells ([2]; 100 nM)	uptake by LNCap cells ([2]; 1000 nM)	uptake by LNCap cells ([2]; 10000 nM)
O=C([O-])CN1CCN(CC(=O)[O-])CCN(CC(=O)Nc2nc3cc(C(=O)NC(Cc4ccc5ccccc5c4)C(=O)NCCCCC(NC(=O)NC(CCC(=O)O)C(=O)O)C(=O)O)ccc3s2)CCN(CC(=O)[O-])CC1.[177Lu+3] (centres unmarked) [^177Lu-E1]	28305 cpm and 17143 cpm	9829 cpm and 8252 cpm	3505 cpm and 3389 cpm	615 cpm and 1288 cpm	163 cpm and 315 cpm	174 cpm and 179 cpm	151 cpm and 169 cpm	22724 cpm	9041 cpm	3447 cpm	952 cpm	239 cpm	177 cpm	160 cpm	39 cpm	169 cpm	77 cpm	121 cpm	331 cpm	1595 cpm
O=C([O-])CN1CCN(CC(=O)[O-])CCN(CC(=O)N2CC3(CCC(C(=O)NC(Cc4ccc5ccccc5c4)C(=O)NCCCCC(NC(=O)NC(CCC(=O)O)C(=O)O)C(=O)O)CC3)C2)CCN(CC(=O)[O-])CC1.[177Lu+3] (centres unmarked) [^177Lu-E2]	37703 cpm and 41406 cpm	18427 cpm and 15030 cpm	7473 cpm and 5428 cpm	1863 cpm and 1189 cpm	296 cpm and 219 cpm	178 cpm and 190 cpm	167 cpm and 170 cpm	39555 cpm	16729 cpm	6451 cpm	1526 cpm	258 cpm	184 cpm	169 cpm	29 cpm	91 cpm	344 cpm	596 cpm	775 cpm	1328 cpm
O=C([O-])CN1CCN(CC(=O)[O-])CCN(CC(=O)N2CCC3(CCC(C(=O)NC(Cc4ccc5ccccc5c4)C(=O)NCCCCC(NC(=O)NC(CCC(=O)O)C(=O)O)C(=O)O)CC3)CC2)CCN(CC(=O)[O-])CC1.[177Lu+3] (centres unmarked) [^177Lu-E9]	30764 cpm and 38134 cpm and 30001 cpm	10391 cpm and 12249 cpm and 8575 cpm	4483 cpm and 4139 cpm and 2519 cpm	892 cpm and 652 cpm and 346 cpm	210 cpm and 196 cpm and 197 cpm	171 cpm and 184 cpm and 161 cpm	164 cpm and 162 cpm and 183 cpm	32966 cpm	10405 cpm	3714 cpm	630 cpm	201 cpm	172 cpm	170 cpm	56 cpm	55 cpm	84 cpm	140 cpm	405 cpm	1194 cpm
O=C([O-])CN1CCN(CC(=O)[O-])CCN(CC(=O)NC23CC(C(=O)NC(Cc4ccc5ccccc5c4)C(=O)NCCCCC(NC(=O)NC(CCC(=O)O)C(=O)O)C(=O)O)(C2)C3)CCN(CC(=O)[O-])CC1.[177Lu+3] (centres unmarked) [^177Lu-E14]	42150 cpm and 41058 cpm and 45756 cpm	18047 cpm and 18268 cpm and 18614 cpm	7200 cpm and 6304 cpm and 6154 cpm	1415 cpm and 1686 cpm and 1863 cpm	203 cpm and 198 cpm and 259 cpm	201 cpm and 206 cpm and 203 cpm	196 cpm and 175 cpm and 159 cpm	42988 cpm	18310 cpm	6553 cpm	1655 cpm	220 cpm	203 cpm	177 cpm	28 cpm	82 cpm	220 cpm	345 cpm	479 cpm	362 cpm

Reference: US20240366813A1, “PEPTIDE-UREA DERIVATIVE, PHARMACEUTICAL COMPOSITION CONTAINING SAME AND APPLICATION THEREOF” (Bivision Pharmaceuticals, Inc., priority 0001, published 2024)
